# Article PMC9046087, “Structural basis of tethered agonism of the adhesion GPCRs ADGRD1 and ADGRF1” (Nature, 2022)
# T1: ADGRF1 (GPR110), residues V251–K860 (ADGRF1-construct 1) (human) (UniProt Q5T601)
# T1 sequence: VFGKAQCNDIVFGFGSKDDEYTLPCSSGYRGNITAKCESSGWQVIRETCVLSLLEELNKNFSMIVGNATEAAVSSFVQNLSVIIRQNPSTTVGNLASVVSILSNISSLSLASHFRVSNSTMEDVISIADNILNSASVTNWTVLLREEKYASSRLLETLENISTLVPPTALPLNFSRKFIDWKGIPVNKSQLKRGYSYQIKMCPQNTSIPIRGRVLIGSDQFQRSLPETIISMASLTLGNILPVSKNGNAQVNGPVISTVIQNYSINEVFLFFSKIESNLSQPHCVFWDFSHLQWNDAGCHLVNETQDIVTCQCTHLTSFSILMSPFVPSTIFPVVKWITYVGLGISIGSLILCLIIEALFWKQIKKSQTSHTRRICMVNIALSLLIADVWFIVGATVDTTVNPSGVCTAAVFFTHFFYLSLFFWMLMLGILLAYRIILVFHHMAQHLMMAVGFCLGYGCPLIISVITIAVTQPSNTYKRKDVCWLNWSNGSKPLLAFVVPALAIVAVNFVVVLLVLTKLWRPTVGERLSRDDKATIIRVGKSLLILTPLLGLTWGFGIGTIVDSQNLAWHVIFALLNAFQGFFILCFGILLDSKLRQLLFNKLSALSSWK
# T2: ADGRD1 (GPR133), residues T545–T827 (ADGRD1-construct) (human) (UniProt Q6QNK2)
# T2 sequence: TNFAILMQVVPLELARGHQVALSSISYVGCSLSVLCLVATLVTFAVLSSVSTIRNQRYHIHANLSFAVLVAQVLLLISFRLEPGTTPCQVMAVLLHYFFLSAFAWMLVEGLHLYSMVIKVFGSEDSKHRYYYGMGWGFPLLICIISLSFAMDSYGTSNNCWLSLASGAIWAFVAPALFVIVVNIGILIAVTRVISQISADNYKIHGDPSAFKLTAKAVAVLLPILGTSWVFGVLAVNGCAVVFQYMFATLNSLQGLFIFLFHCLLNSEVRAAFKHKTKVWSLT
# Key:
# ADGRF1 [1] = experiment: Identification of phospholipid ligands by LC–MS/MS; format: binding, human
# Description: The identification of phospholipids specifically bound to ADGRF1 was performed as previously described[33],[50] with minor modifications. In brief, ADGRF1 and control ADGRD1 protein were reduced with 5 mM TCEP at 25 °C for 30 min and alkylated with 20 mM idoacetamide at 25 °C for 30 min. Then the protein samples were digested with trypsin (Promega) at an enzyme-to-protein ratio of 1:50 (w/w) at 37 °C overnight. The digested proteins were dried in a vacuum concentrator and then extracted with 400 μl of ice-cold methanol:water (9:1, v/v) by vortex and sonication. After centrifugation at 12,000g for 15 min at 4 °C, the supernatants were collected and lyophilized under vacuum. The lipid extracts were resuspended in methanol:chloroform (9:1, v/v) to an equivalent concentration of 2 μM. Samples were analysed on a Q Exactive mass spectrometer (Thermo Fisher Scientific) operating in the positive ion mode coupled to a Waters Acquity UPLC system (Waters). […] The specificity of lipid binding to ADGRF1 was assessed by the ratio of EIC peak areas for each lipid in the ADGRF1 versus the control sample. […]
# ADGRF1 [2] = conditions: cited from earlier work
# [3] = test system: neurogenesis, neuritogenesis and synaptogenesis; conditions: ref [35]; cited from earlier work
# [4] = target: T1, ADGRF1 (GPR110), residues V251–K860 (ADGRF1-construct 1) (human)
# [5] = target: T2, ADGRD1 (GPR133), residues T545–T827 (ADGRD1-construct) (human)
# ADGRD1 = experiment: Cell-surface expression by flow cytometry, ADGRD1; format: cell-based, human; conditions: ADGRD1 constructs (pD1 Gs part of table), anti-Flag antibody, three independent measurements in duplicate
# Description: The wild-type ADGRD1 and ADGRF1 and mutants used in functional studies were constructed into a pTT5 vector with a Flag tag at the N terminus for receptor expression measurement. The basal activity of ADGRD1 and ADGRF1 in mediating Gs signalling was measured by a cAMP accumulation assay using a LANCE Ultra cAMP detection kit (PerkinElmer) following the manufacturer’s instruction. In brief, 2 ml HEK293F cells (Invitrogen; cells were routinely tested for mycoplasma contamination) at a density of 1.2 × 10^6 cells per ml were transiently transfected with 2,000 ng plasmid of the wild-type or mutant receptor and cultured at 37 °C for 48 h with 5% CO2 atmosphere in a shaker shaking at 220 rpm. After collection, the cell-surface expression of the receptors was measured by incubating 10 μl cells with 15 μl monoclonal anti-Flag M2-FITC antibody (Sigma; 1:120 diluted in TBS supplemented with 4% BSA and 20% viability staining solution 7-AAD (Invitrogen)) at 4 °C for 20 min. After incubation, 175 μl TBS buffer was added and the fluorescent signal was measured using a flow cytometry reader (Guava easyCyte HT, Millipore).
molecule,measurement,setting,value
CCCCCCCCCCCCCCCC(=O)OC[C@@H](O)COP(=O)([O-])OCC[N+](C)(C)C [LPC 16:0],specific binding to ADGRF1 (lipidomics),"ADGRF1 [1]; ADGRD1 as control, specific binder: mean EIC ratio > 2 and P < 0.05, n = 3",bound specifically to ADGRF1
same,"EIC peak ratio, ADGRF1 versus ADGRD1 (mean)","ADGRF1 [1]; ADGRD1 protein as control, methanol:water lipid extract, P < 0.05, three independent experiments",> 2
"CC/C=C\C/C=C\C/C=C\C/C=C\C/C=C\C/C=C\CCC(=O)NCCO [synaptamide, N-docosahexaenoylethanolamine]",stalk dependence of ADGRF1 activation,"ADGRF1 [2]; believed to act through the extracellular GAIN domain, ref [36]",activates the receptor in a stalk-independent manner
same,agonism at ADGRF1,ADGRF1 [2]; ref [35],endogenous small-molecule agonist for ADGRF1
same,"neurogenesis, neuritogenesis and synaptogenesis",[3],"promotes neurogenesis, neuritogenesis and synaptogenesis"
TNFAILMQVVPLE [synthetic stalk peptide of ADGRD1 (pD1)],G protein activation of wild-type ADGRF1 in HEK293F cells (BRET assay with TRUPATH biosensors): EC50 of pD1 against that of pF1,[4],2 fold
TSFSILMSPFVP [synthetic stalk peptide of ADGRF1 (pF1)],fold decrease in G protein activation of wild-type ADGRD1 in HEK293F cells (BRET assay with TRUPATH biosensors): potency of pF1 against that of pD1,[5],59 fold
"K760^6.40bA (protein, UniProt Q6QNK2 26-874, looked up, variant K760A) Adhesion G-protein coupled …: VYSRSQDHPGFQVLASASHYWPLENVDGIHELQDTTGDIVEGKVNKGIYLKEEKGVTLLYYGRYNSSCISKPEQCGPEGVTFSFFWKTQGEQSRPIPSAYGGQVISNGFKVCSSGGRGSVELYTRDNSMTWEASFSPPGPYWTHVLFTWKSKEGLKVYVNGTLSTSDPSGKVSRDYGESNVNLVIGSEQDQAKCYENGAFDEFIIWERALTPDEIAMYFTAAIGKHALLSSTLPSLFMTSTASPVMPTDAYHPIITNLTEERKTFQSPGVILSYLQNVSLSLPSKSLSEQTALNLTKTFLKAVGEILLLPGWIALSEDSAVVLSLIDTIDTVMGHVSSNLHGSTPQVTVEGSSAMAEFSVAKILPKTVNSSHYRFPAHGQSFIQIPHEAFHRHAWSTVVGLLYHSMHYYLNNIWPAHTKIAEAMHHQDCLLFATSHLISLEVSPPPTLSQNLSGSPLITVHLKHRLTRKQHSEATNSSNRVFVYCAFLDFSSGEGVWSNHGCALTRGNLTYSVCRCTHLTNFAILMQVVPLELARGHQVALSSISYVGCSLSVLCLVATLVTFAVLSSVSTIRNQRYHIHANLSFAVLVAQVLLLISFRLEPGTTPCQVMAVLLHYFFLSAFAWMLVEGLHLYSMVIKVFGSEDSKHRYYYGMGWGFPLLICIISLSFAMDSYGTSNNCWLSLASGAIWAFVAPALFVIVVNIGILIAVTRVISQISADNYKIHGDPSAFKLTAAAVAVLLPILGTSWVFGVLAVNGCAVVFQYMFATLNSLQGLFIFLFHCLLNSEVRAAFKHKTKVWSLTSSSARTSNAKPFHSDLMNGTRPGMASTKLSPWDKSSHSAHRVDLSAV",Cell-surface expression (% of WT),ADGRD1,126 ± 21 % of WT
